These results are taken from patent US20240261290A1, “PHARMACEUTICAL COMPOSITION COMPRISING 7-(4-CHLOROBENZYL)-1-(3-HYDROXYPROPYL)-3-METHYL-8-(3-(TRIFLUOROMETHOXY)-PHENOXY)-3,7-DIHYDRO-1H-PURINE-2,6-DIONE” (Boehringer Ingelheim International GmbH, priority 2023, published 2024).

Molecules are shown by their SMILES.

Data set [1] is described as follows: Lipophilicity (logP) of Compound 1. The data set is classed as physicochemical.
Data set [2] is described as follows: Aqueous solubility of Compound 1. In kind it is physicochemical. The following applies: under acidic to neutral conditions.

As for `Cn1c(=O)n(CCCO)c(=O)c2c1nc(Oc1cccc(OC(F)(F)F)c1)n2Cc1ccc(Cl)cc1` [Compound 1, 7-(4-chlorobenzyl)-1-(3-hydroxypropyl)-3-methyl-8-(3-(trifluoromethoxy)-phenoxy)-3,7-dihydro-1H-purine-2,6-dione], the logP (usually the decadic logarithm of the partition coefficient of the neutral form, usually between octanol and water) in data set [1] was determined as 5.2. For the same molecule, the aqueous solubility result in data set [2] was “low aqueous solubility”.
